Results on 35 compounds are retold here after ChEMBL document CHEMBL4043177 (Bioorg Med Chem, 2017).

pIC50: −log10 of the molar value.

The target in assay [1] is T1, Orexin/Hypocretin receptor type 1 (Homo sapiens, UniProt O43613).
T1 sequence (O43613 whole entry): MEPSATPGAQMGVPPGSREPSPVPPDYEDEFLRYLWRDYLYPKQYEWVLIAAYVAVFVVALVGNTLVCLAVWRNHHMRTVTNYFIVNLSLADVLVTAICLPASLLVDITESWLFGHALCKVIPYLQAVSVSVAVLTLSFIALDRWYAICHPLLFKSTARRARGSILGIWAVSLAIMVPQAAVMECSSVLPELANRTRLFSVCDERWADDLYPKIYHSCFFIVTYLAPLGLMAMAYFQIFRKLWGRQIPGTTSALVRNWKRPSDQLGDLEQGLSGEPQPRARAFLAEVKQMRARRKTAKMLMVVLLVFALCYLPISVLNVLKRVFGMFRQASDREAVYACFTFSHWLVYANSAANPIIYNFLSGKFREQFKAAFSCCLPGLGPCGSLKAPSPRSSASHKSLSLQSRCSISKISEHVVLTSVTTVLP
Description: Antagonist activity at human OX1R expressed in CHO cells assessed as reduction in [Ala6,12]orexin-A-induced intracellular Ca2+ mobilization incubated for 30 mins by Fluo-4AM dye based fluorescence assay. Format: functional, cell-based. On the technique in general: Calcium flux is commonly read through the fluorescence of an indicator in the cells.

The next assay has as its target T2, Orexin receptor type 2 (Homo sapiens, UniProt O43614).
T2 sequence (O43614 whole entry): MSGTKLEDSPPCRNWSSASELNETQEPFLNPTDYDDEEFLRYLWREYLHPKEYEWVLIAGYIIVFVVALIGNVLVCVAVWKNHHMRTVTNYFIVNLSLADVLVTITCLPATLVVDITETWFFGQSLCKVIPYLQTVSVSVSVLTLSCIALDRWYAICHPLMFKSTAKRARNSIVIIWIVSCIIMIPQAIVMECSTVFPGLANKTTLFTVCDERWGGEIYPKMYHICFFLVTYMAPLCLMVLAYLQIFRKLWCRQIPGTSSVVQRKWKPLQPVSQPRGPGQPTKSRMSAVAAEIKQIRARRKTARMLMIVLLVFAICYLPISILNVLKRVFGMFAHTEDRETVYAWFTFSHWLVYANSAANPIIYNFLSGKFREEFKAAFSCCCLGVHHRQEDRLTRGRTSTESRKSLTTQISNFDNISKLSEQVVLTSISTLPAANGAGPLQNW
Description: Antagonist activity at human OX2R expressed in CHO cells assessed as reduction in [Ala6,12]orexin-A-induced intracellular Ca2+ mobilization incubated for 30 mins by Fluo-4AM dye based fluorescence assay. The format is functional, cell-based.

The species entered for assay [2] is Homo sapiens. Description: Selectivity index, ratio of IC50 for human OX2R expressed in CHO cells to IC50 for human OX1R expressed in CHO cells. The format is cell-based.
The species named for assay [3] is Homo sapiens. Briefly: Selectivity index, ratio of IC50 for OX2R expressed in CHO cells to IC50 for human OX1R expressed in CHO cells. The format is cell-based.

As for `Cc1ccc(-n2nccn2)c(C(=O)N(C)[C@@H](C)Cn2ccc(-c3ccc(F)cn3)n2)c1`, the pIC50 in assay [1] is 8.72; on Orexin receptor type 2, 8.25. Further, the Ratio IC50 in the assay filed under Homo sapiens [2] was determined as 3.
The corresponding values for `CCN(C(=O)c1cc(F)ccc1-c1ncccn1)[C@@H](C)Cc1noc(-c2ccc(F)cc2)n1` are 8.80, 7.10 and 51.
On to `CCN(C(=O)c1cc(C)ccc1-n1nccn1)[C@@H](C)Cn1cc(-c2ccc(F)cn2)nn1`, for which the pIC50 was 8.71 in assay [1] and 7.64 on Orexin receptor type 2. In addition, the Ratio IC50 in the assay filed under Homo sapiens [2] came out at 12.
In the case of `CCN(C(=O)c1cc(C)ccc1-c1ncccn1)[C@@H](C)Cc1noc(-c2ccc(F)cc2)n1`, on Orexin receptor type 2, the pIC50 is 8.05. Moreover, in the assay listed under Homo sapiens [2], the Ratio IC50 came to 6.3.
In the case of `CCN(C(=O)c1cc(C)ccc1-c1ncccn1)[C@@H](C)Cc1noc(-c2ccc(F)cn2)n1`, the pIC50 was 8.49 in assay [1] and 7.36 at Orexin receptor type 2. Moreover, the Ratio IC50 in the assay filed under Homo sapiens [2] was found to be 13.
The corresponding values for `Cc1ccc(-n2nccn2)c(C(=O)N(C)[C@@H](C)Cn2cc(-c3ccc(F)cn3)cn2)c1` are 8.36, 7.67 and 4.8.
For the compound `CCN(CCn1cc(-c2ccc(F)cn2)cn1)C(=O)c1cc(C)ccc1-n1nccn1`, the pIC50 in assay [1] is 8.04; at Orexin receptor type 2, 7.85. Moreover, the Ratio IC50 in the assay listed under Homo sapiens [2] was determined as 1.6.
In the same order, the values of `CC[C@@H](Cn1ccc(-c2ccc(F)cn2)n1)N(C)C(=O)c1cc(C)ccc1-n1nccn1` are 8.36, 7.54 and 6.6.
For `Cc1ccc(-n2nccn2)c(C(=O)N[C@@H](C)Cn2ccc(-c3ccc(F)cn3)n2)c1`, the negative logarithm of the IC50 (pIC50) was 8.00 in assay [1] and 7.23 at Orexin receptor type 2. Besides, in the assay filed under Homo sapiens [2], the Ratio IC50 stood at 5.8.
The corresponding values for `CCN(C(=O)c1cc(C)ccc1-n1nccn1)[C@@H](C)Cc1noc(-c2ccc(F)cc2)n1` are 8.97, 8.56 and 2.6.
In the same order, the values of `CCN(C(=O)c1cc(C)ccc1-c1ncccn1)[C@@H](C)Cn1nnc(-c2ccc(F)cc2)n1` are 8.74, 7.44 and 20.
The corresponding values for `CCN(C(=O)c1ccccc1-n1nccn1)[C@@H](C)Cn1nnc(-c2ccc(F)cc2)n1` are 8.61, 7.21 and 25.
Consider `CCN(CCn1ccc(-c2ccc(F)cn2)n1)C(=O)c1cc(C)ccc1-n1nccn1`, for which the values for the pIC50 (in assay [1]; at Orexin receptor type 2) were 8.49 and 8.55, respectively. Further, the Ratio IC50 in the assay filed under Homo sapiens [2] worked out at 0.87.
In the case of `CCN(C(=O)c1nc(C)ccc1-n1nccn1)[C@@H](C)Cn1nnc(-c2ccc(F)cc2)n1`, the values for the pIC50 (in assay [1]; on Orexin receptor type 2) were 8.74 and 6.92, respectively. Further, the Ratio IC50 in the assay listed under Homo sapiens [2] is 65.
In the same order, the values of `CCN(C(=O)c1nc(C)ccc1-n1nccn1)[C@@H](C)Cc1noc(-c2ccc(F)cc2)n1` are 8.74, 7.39 and 22.
In the same order, the values of `CCN(C(=O)c1cc(C)ccc1-n1nccn1)[C@@H](C)Cn1nnc(-c2ccc(F)cc2)n1` are 9.09, 8.59 and 3.1.
In the same order, the values of `CCN(C(=O)c1cc(F)ccc1-n1nccn1)[C@@H](C)Cc1noc(-c2ccc(F)cn2)n1` are 7.83, 6.05 and 60.
For the compound `CCN(C(=O)c1cc(C)ccc1-n1nccn1)[C@@H](C)Cn1ccc(-c2ccc(F)cn2)n1`, the pIC50 (in assay [1]; on Orexin receptor type 2) was 8.79 in each case. Moreover, in the assay listed under Homo sapiens [2], the Ratio IC50 was found to be 1.
Turning to `CCN(C(=O)c1cc(C)ccc1-c1ncccn1)[C@@H](C)Cn1nnc(-c2ccc(F)cn2)n1`, the pIC50 in assay [1] was 7.97; at Orexin receptor type 2 it was 6.89. Moreover, the Ratio IC50 in the assay listed under Homo sapiens [2] was 12.
For the compound `Cc1ccc(-n2nccn2)c(C(=O)N(C)[C@H](Cn2ccc(-c3ccc(F)cn3)n2)C(C)C)c1`, the pIC50 was 7.21 in assay [1] and 6.02 at Orexin receptor type 2. Moreover, the Ratio IC50 in the assay listed under Homo sapiens [2] was 16.
As to `CCN(C(=O)c1cc(F)ccc1-n1nccn1)[C@@H](C)Cc1noc(-c2ccc(F)cc2)n1`, the values for the pIC50 (in assay [1]; on Orexin receptor type 2) were 8.90 and 7.63, respectively. Also, in the assay filed under Homo sapiens [2], the Ratio IC50 stood at 19.
In the same order, the values of `CCN(C(=O)c1cc(F)ccc1-n1nccn1)[C@@H](C)Cn1nnc(-c2ccc(F)cc2)n1` are 8.51, 6.86 and 45.
Turning to `Cc1ccc(-n2nccn2)c(C(=O)N(C)CCn2ccc(-c3ccc(F)cn3)n2)c1`, the negative logarithm of the IC50 (pIC50) on Orexin receptor type 2 was 7.92. Further, the Ratio IC50 in the assay filed under Homo sapiens [2] was determined as 2.1.
`Cc1ccc(-n2nccn2)c(C(=O)N(C)CCn2cc(-c3ccc(F)cn3)cn2)c1`: the negative logarithm of the IC50 (pIC50) in assay [1] is 7.25; at Orexin receptor type 2, 7.29. Moreover, the Ratio IC50 in the assay listed under Homo sapiens [2] was determined as 0.92.
With `Cc1nc2ccc(NC(=O)Nc3ccnc4cccnc34)cc2o1`, the Ratio IC50 in the assay filed under Homo sapiens [3] amounted to 50.
For the compound `Cc1ccc(-n2nccn2)c(C(=O)N[C@@H](C)Cn2cc(-c3ccc(F)cn3)cn2)c1`, the negative logarithm of the IC50 (pIC50) is 6.61 in assay [1] and 6.08 on Orexin receptor type 2. In the assay filed under Homo sapiens [2], the Ratio IC50 was 3.4.
Turning to `CCN(C(=O)c1cc(C)ccc1-n1nccn1)[C@@H](C)Cc1noc(-c2ccc(F)cn2)n1`, the pIC50 in assay [1] is 8.90; on Orexin receptor type 2, 7.95. For the same compound, the Ratio IC50 in the assay filed under Homo sapiens [2] was 9.
In the same order, the values of `CCN(C(=O)c1cc(C)ccc1-n1nccn1)[C@@H](C)Cn1cc(-c2ccc(F)cn2)cn1` are 9.12, 8.23 and 7.7.
The corresponding values for `CCN(C(=O)c1cc(C)ccc1-n1nccn1)[C@@H](C)Cn1nnc(-c2ccc(F)cn2)n1` are 8.96, 7.75 and 16.
In the same order, the values of `CCN(C(=O)c1cc(F)ccc1-n1nccn1)[C@@H](C)Cn1nnc(-c2ccc(F)cn2)n1` are 8.02, 6.33 and 50.
Take `Cc1ccc(-n2nccn2)c(C(=O)NCCn2cc(-c3ccc(F)cn3)cn2)c1`: the negative logarithm of the IC50 (pIC50) in assay [1] is 6.04.
As to `CCN(C(=O)c1cc(C)ccc1-n1nccn1)[C@H](C)Cn1ccc(-c2ccc(F)cn2)n1`, the negative-log IC50 (pIC50) in assay [1] is 7.06; at Orexin receptor type 2, 6.60. The Ratio IC50 in the assay listed under Homo sapiens [2] is 2.9.
The corresponding values for `CCN(C(=O)c1nc(C)ccc1-c1ncccn1)[C@@H](C)Cc1noc(-c2ccc(F)cc2)n1` are 8.45, 6.60 and 71.
In the same order, the values of `CCN(C(=O)c1ccccc1-n1nccn1)[C@@H](C)Cc1noc(-c2ccc(F)cc2)n1` are 8.90, 7.94 and 9.3.
The corresponding values for `Cc1ccc(-n2nccn2)c(C(=O)NCCn2ccc(-c3ccc(F)cn3)n2)c1` are 6.92, 6.70 and 1.7.

In general, pIC50 refers to the IC50 on a negative log10 scale, so that one unit is a factor of ten.
